Data on 4 molecules can be found in US20250114511A1, “BLOOD PERFUSION DEVICE TO REDUCE SECONDARY INFECTION IN HOSPITAL” (SEOUL NATIONAL UNIVERSITY R&DB FOUNDATION, priority 2022, published 2025).

Assay [1] relates to PMNs isolated from healthy volunteers. The experiment in a line: Chemotaxis to 100 nM fMLF of healthy volunteer PMNs exposed to septic shock patient plasma. It counts as cell-based, human. The settings on record: 10 μM CsH. How it is done: The effect of bead-anti-mtFP mixture treatment on PMN chemotaxis rescue was analyzed. PMS was isolated from blood samples obtained from healthy volunteers and exposed to untreated plasma from septic shock patients for 30 minutes in a 10-rpm rotator at 37° C. […] In order to estimate the capacity of non-FPR1-mediated PMN chemotaxis, separate PMNs exposed to bead anti-mtFP mixture-treated plasma were pretreated with 10 μM CsH 15 minutes prior to the chemotaxis experiment.
The inventors of the present disclosure investigated the chemotactic restoration effect of the anti-mtFP cocktail on PMNs by exposing PMNs from healthy volunteers to the plasma of septic shock patients treated with the anti-mtFP cocktail and then comparing PMN chemotaxis with plasma that had not received the anti-mtFP cocktail treatment.

Assay [2] relates to PMNs isolated from septic shock patients with secondary infection. The assay is described as follows: Chemotaxis to 100 nM fMLF of PMNs from septic shock patients with secondary infection exposed to their own plasma. Particulars: 50 pg/mL recombinant LTB4 added to bead-anti-mtFP mixture treated plasma, 90 minutes. The class given is cell-based, human.
The test system of assay [3] is human polymorphonuclear cells (PMN). Particulars: previous studies of the inventors; cited from earlier work.
A further assay deals with FPR1. The experiment in a line: FPR1 expression on PMN membranes by flow cytometry. It counts as cell-based, human. The settings on record: 100 nM ND6 for 30 minutes. How it is done: FPR1 expression on PMN membranes and the amount of CaMK2 in the homogenized PMN pellet were also detected by flow cytometry. In order to detect FPR1 on PMN membranes, PMNs (1.0×10^6 in 200 μL) were incubated with FITC-conjugated anti-human FPR1 antibody (2 μL, FAB3744F, R&D Systems, Minneapolis, MN) for 30 minutes at room temperature in the dark. FITC-conjugated mouse IgG2a, κ isotype control antibody (400210, BioLegend, San Diego, CA) was used as a negative control. After washing twice, fluorescence was measured. APC-conjugated anti-CaMK2 antibody (2 μL, ab225178, Abcam, Cambridge, UK) was used to detect the amount of CaMK2 in 200 μL of homogenized PMN pellet obtained by homogenization of 1.0×10^6/l mL PMN for 30 seconds at 4° C. and centrifugation at 20,000 g for 10 minutes. FPR1 expression in PMN membranes and the amount of CaMK2 in homogenized PMN pellets were quantified as mean fluorescence intensity (MFI) by using FlowJo version 10.0 (FlowJo, LLC, Ashland, OR). At least three independent experiments were performed.
A general note: Flow cytometry measures light scatter and fluorescence of single cells or particles in a stream.

In assay [4] the test system is human polymorphonuclear cells (PMN).
Method: PMN chemotaxis was assessed by using multiScreen 96-well plates consisting of a 3-μm pore membrane (MAMIC3S10, Merck Millipore, Darmstadt, Germany). After preplanned treatment with ND6 or patient plasma, isolated human PMNs were centrifuged at 200 g for 10 minutes at 4° C. Afterwards, the PMN pellet was resuspended in Dulbecco's modified Eagle medium (DMEM, 11885-084, Thermo Fisher) containing 10% fetal bovine serum (FBS, F2442, Sigma-Aldrich). Before use, FBS was inactivated by heating at 56° C. for 1 hour. PMNs were placed in the upper chamber of the plate (0.1×10^6 PMNs at 75 μL per well), and medium containing 100 nM fMLF was placed in the lower chamber (150 μL per well). In medium without ND6 or fMLF, 0.1% DMSO was added.
Plates were incubated for 60 minutes in an incubator at 37° C. with 5% carbon dioxide (CO2). […] Afterwards, the contents were transferred to a 96-well plate, and fluorescence was measured at an excitation/emission wavelength of 480/520 nm with a cut-off of 515 nm. The number of migrated PMNs was calculated by using a standard curve derived from known PMN numbers. […]
After exposure to 100 nM ND6 for 30 minutes, PMNs were centrifuged at 220 g for 10 minutes at 4° C., and the supernatant was discarded. […] PMN chemotaxis at 30 and 90 minutes was measured as the number of PMNs migrated during 60-minute incubation between 30 and 90 minutes and 90 and 150 minutes, respectively.
Assay [5] deals with T1, formyl peptide receptor 1 (FPR1) (Homo sapiens, UniProt P21462).
T1 sequence (P21462 1-350): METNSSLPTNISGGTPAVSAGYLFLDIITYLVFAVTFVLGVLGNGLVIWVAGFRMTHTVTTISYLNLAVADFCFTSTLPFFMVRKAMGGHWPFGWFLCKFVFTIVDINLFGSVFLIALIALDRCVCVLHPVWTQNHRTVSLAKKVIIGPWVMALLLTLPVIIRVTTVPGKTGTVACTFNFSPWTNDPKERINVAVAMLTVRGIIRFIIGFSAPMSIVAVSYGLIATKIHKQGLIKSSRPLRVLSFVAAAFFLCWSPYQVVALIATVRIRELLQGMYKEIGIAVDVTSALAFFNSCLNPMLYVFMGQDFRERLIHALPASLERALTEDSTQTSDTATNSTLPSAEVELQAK
The experiment in a line: PMN intracellular calcium mobilization (ER calcium depletion and calcium influx, fura2-AM). A general note: Calcium assays in cells follow changes in intracellular calcium, usually with a dye or a luminescent sensor.
Method: Calcium mobilization within PMN cells was measured according to the following method. The separated PMN pellet was resuspended in pH 7.4 hydroxyethyl piperazine ethane sulfonic acid (HEPES) buffer solution. This HEPES buffer solution includes 20 mM HEPES, 140 mM NaCl, 5 mM potassium chloride (KCl), 1 mM magnesium chloride (MgCl2), 1 mM calcium chloride (CaCl2)), 10 mM glucose and 0.1% bovine serum albumin (BSA, A2058 Sigma-Aldrich). PMNs were loaded with fura2-AM (F1221, Thermo Fisher, Waltham, MA) for 45 minutes at 37° C.
Fluorescence was measured at 505 nm with 340/380 nm dual-wavelength excitation at 37° C. by using a spectrofluorometer (FluoroMax Plus-C, Horiba, Ltd., Kyoto, Japan). For the quantitative measurement of endoplasmic reticulum (ER) calcium depletion, PMNs were centrifuged at 200 g for 10 minutes at 4° C. PMN pellets were then resuspended in a calcium-free HEPES buffer solution including 0.3 mM ethylene glycol-bis(2-aminoethylether)-N,N,N′,N′-tetraacetic acid (EGTA, E3889, Sigma-Aldrich, St. Louis, MO), and stimulated with ND6 and fMLF or with ND6 alone. 0.1% dimethyl sulfoxide (DMSO) was added to the medium without ND6 or fMLF. After endoplasmic reticulum calcium was depleted, 1.8 mM CaCl2) was added to induce cytoplasmic calcium influx. Endoplasmic reticulum calcium depletion and calcium influx were assessed by measuring the 340 nm/380 nm ratio and quantified as AUC over 150 seconds (AUC150) and AUC over 100 seconds (AUC100), respectively. […]
In order to investigate which steps of intracellular calcium mobilization stimulated by FPR1 agonists directly correlate with PMN chemotaxis, the inventors of the present disclosure quantitatively measured the amounts of endoplasmic reticulum (ER) calcium depletion and subsequent calcium influx into the cytoplasm in isolated human PMNs obtained from healthy volunteers. […] The area under the curve (AUC) of ER calcium depletion over 150 seconds was calculated to quantify the amount of ER calcium depletion stimulated by ND6 (AUC150 primary) and fMLF (AUC150 secondary), respectively. […]

“Also recorded” adds a separate entry of the source. Where two headings read alike, the source gives them in different places.

On to `C/C=C/C[C@@H](C)[C@@H](O)[C@H]1C(=O)N[C@@H](CC)C(=O)N(C)CC(=O)N(C)[C@@H](CC(C)C)C(=O)N[C@@H](C(C)C)C(=O)N(C)[C@@H](CC(C)C)C(=O)N[C@@H](C)C(=O)N[C@H](C)C(=O)N(C)[C@@H](CC(C)C)C(=O)N(C)[C@@H](CC(C)C)C(=O)N(C)[C@H](C(C)C)C(=O)N1C` [CsH, cyclosporine H], for which the “chemotaxis of CsH-treated PMNs versus CsH-free PMNs exposed to untreated plasma” value in assay [1] is given as “not significantly different”.
Take `CCCCC/C=C\C[C@@H](O)/C=C/C=C/C=C\[C@@H](O)CCCC(=O)O` [recombinant LTB4, leukotriene B4]: the “restoration of PMN chemotaxis compared to PMN exposed to untreated plasma” value in assay [2] is on record as “effectively restored PMN chemotaxis”; in assay [2] (listed as recombinant leukotriene B4 (LTB4)) it was “significantly restored PMN chemotaxis”.
Take “N-formyl-methionine-leucine-phenylalanine [fMLF]”: the “most potent concentration to induce FPR1-mediated PMN chemotaxis” value in assay [3] was 100 nM.
Turning to “N-formyl-methionine-methionine-tyrosine-alanine-leucine-phenylalanine [ND6]”, the “FPR1 expression in PMN membranes (MFI)” value with FPR1 was “reduced FPR1 expression”. The “PMN chemotaxis in response to 100 nM fMLF” value in assay [4] (100 nM ND6 for 30 minutes) is reported as “inhibited”; in assay [4] (ND6-treated PMNs, 100, 10, 5 nM), “dose-dependently inhibited”. Further, the “ER calcium depletion and calcium influx in response to 100 nM fMLF” value in assay [5] (100 nM ND6 for 30 minutes or more) was “inhibited; also recorded: did not completely inhibit”. Besides, in assay [5] (100 nM, 10 nM, 5 nM ND6, then 100 nM fMLF), the “inhibition of fMLF-stimulated secondary ER calcium depletion and subsequent calcium influx” value is listed as “dose-dependently inhibited”.
